Results as given in the NIST ThermoML archive (doi:10.1016/j.jct.2013.07.003).

Key:
[1] = relative permittivity at various frequencies (dimensionless); xn = mol fraction of the nth substance listed; details: 101 kPa, Liquid, Frequency=0.1 MHz, Coaxial cylinder capacitor
[2] = refractive index (Na D-line) (dimensionless); xn = mol fraction of the nth substance listed; details: 101 kPa, Liquid, Standard Abbe refractometry

CC(O)CCO (stereo not given) [1,3-butanediol] + C1COCCO1
Details | refractive index, 298.2 K | refractive index, 303.2 K | refractive index, 308.2 K | refractive index, 313.2 K | refractive index, 318.2 K | relative permittivity, 298.2 K | relative permittivity, 303.2 K | relative permittivity, 308.2 K | relative permittivity, 313.2 K | relative permittivity, 318.2 K
[1], x1 = 0.103 | – | – | – | – | – | 3.36 | 3.34 | 3.32 | 3.3 | 3.28
[1], x1 = 0.204 | – | – | – | – | – | 4.91 | 4.85 | 4.79 | 4.72 | 4.67
[1], x1 = 0.301 | – | – | – | – | – | 6.73 | 6.64 | 6.54 | 6.45 | 6.38
[1], x1 = 0.401 | – | – | – | – | – | 8.96 | 8.82 | 8.66 | 8.52 | 8.38
[1], x1 = 0.451 | – | – | – | – | – | 10.17 | 10 | 9.83 | 9.67 | 9.5
[1], x1 = 0.5 | – | – | – | – | – | 11.44 | 11.23 | 11.02 | 10.85 | 10.61
[1], x1 = 0.548 | – | – | – | – | – | 12.76 | 12.5 | 12.25 | 12.03 | 11.77
[1], x1 = 0.61 | – | – | – | – | – | 14.6 | 14.3 | 13.94 | 13.63 | 13.3
[1], x1 = 0.699 | – | – | – | – | – | 17.46 | 17.03 | 16.58 | 16.15 | 15.73
[1], x1 = 0.788 | – | – | – | – | – | 20.41 | 19.88 | 19.36 | 18.88 | 18.38
[1], x1 = 0.897 | – | – | – | – | – | 24.35 | 23.72 | 23.02 | 22.41 | 21.79
[1], x1 = 0.951 | – | – | – | – | – | 26.42 | 25.72 | 24.98 | 24.29 | 23.61
[1], x1 = 1 | – | – | – | – | – | 28.52 | 27.66 | 26.77 | 25.98 | 25.22
[2], x1 = 0.103 | 1.4217 | 1.4195 | 1.4165 | 1.414 | 1.4112 | – | – | – | – | –
[2], x1 = 0.204 | 1.4235 | 1.4213 | 1.4183 | 1.4161 | 1.4136 | – | – | – | – | –
[2], x1 = 0.301 | 1.425 | 1.423 | 1.4202 | 1.418 | 1.4155 | – | – | – | – | –
[2], x1 = 0.401 | 1.4268 | 1.425 | 1.4222 | 1.4202 | 1.4177 | – | – | – | – | –
[2], x1 = 0.451 | 1.4279 | 1.4258 | 1.4233 | 1.4213 | 1.419 | – | – | – | – | –
[2], x1 = 0.5 | 1.4287 | 1.4267 | 1.4243 | 1.4222 | 1.42 | – | – | – | – | –
[2], x1 = 0.548 | 1.4296 | 1.4275 | 1.4255 | 1.423 | 1.4209 | – | – | – | – | –
[2], x1 = 0.61 | 1.431 | 1.4285 | 1.4262 | 1.4242 | 1.4221 | – | – | – | – | –
[2], x1 = 0.699 | 1.4325 | 1.4308 | 1.4285 | 1.4267 | 1.4247 | – | – | – | – | –
[2], x1 = 0.788 | 1.4342 | 1.4326 | 1.4303 | 1.4287 | 1.4269 | – | – | – | – | –
[2], x1 = 0.897 | 1.4363 | 1.4348 | 1.4333 | 1.4314 | 1.4297 | – | – | – | – | –
[2], x1 = 0.951 | 1.4374 | 1.4361 | 1.4347 | 1.4329 | 1.4313 | – | – | – | – | –
[2], x1 = 1 | 1.4384 | 1.4371 | 1.4356 | 1.4341 | 1.4328 | – | – | – | – | –

CC(O)CCO (stereo not given) [1,3-butanediol] + CCCCCCCCO
Details | refractive index, 298.2 K | refractive index, 303.2 K | refractive index, 308.2 K | refractive index, 313.2 K | refractive index, 318.2 K | relative permittivity, 298.2 K | relative permittivity, 303.2 K | relative permittivity, 308.2 K | relative permittivity, 313.2 K | relative permittivity, 318.2 K
[1], x1 = 0.105 | – | – | – | – | – | 10.43 | 9.99 | 9.56 | 9.1 | 8.74
[1], x1 = 0.2 | – | – | – | – | – | 11.24 | 10.8 | 10.32 | 9.91 | 9.5
[1], x1 = 0.301 | – | – | – | – | – | 12.31 | 11.86 | 11.36 | 10.95 | 10.54
[1], x1 = 0.401 | – | – | – | – | – | 13.6 | 13.15 | 12.62 | 12.19 | 11.76
[1], x1 = 0.45 | – | – | – | – | – | 14.39 | 13.92 | 13.39 | 12.94 | 12.49
[1], x1 = 0.501 | – | – | – | – | – | 15.23 | 14.73 | 14.21 | 13.75 | 13.27
[1], x1 = 0.55 | – | – | – | – | – | 16.1 | 15.6 | 15.04 | 14.53 | 14.06
[1], x1 = 0.6 | – | – | – | – | – | 17.05 | 16.52 | 15.93 | 15.42 | 14.92
[1], x1 = 0.66 | – | – | – | – | – | 18.34 | 17.77 | 17.13 | 16.57 | 16.07
[1], x1 = 0.7 | – | – | – | – | – | 19.31 | 18.77 | 18.02 | 17.46 | 16.91
[1], x1 = 0.801 | – | – | – | – | – | 21.99 | 21.34 | 20.58 | 20.02 | 19.37
[1], x1 = 0.9 | – | – | – | – | – | 25.05 | 24.33 | 23.43 | 22.79 | 22.1
[1], x1 = 0.95 | – | – | – | – | – | 26.73 | 25.9 | 25.07 | 24.31 | 23.62
[1], x1 = 1 | – | – | – | – | – | 28.52 | 27.66 | 26.77 | 25.98 | 25.22
[2], x1 = 0.105 | 1.4279 | 1.4257 | 1.4233 | 1.4209 | 1.4189 | – | – | – | – | –
[2], x1 = 0.2 | 1.4283 | 1.4261 | 1.4238 | 1.4215 | 1.4195 | – | – | – | – | –
[2], x1 = 0.301 | 1.4288 | 1.4268 | 1.4245 | 1.4223 | 1.4204 | – | – | – | – | –
[2], x1 = 0.401 | 1.4295 | 1.4275 | 1.4253 | 1.4232 | 1.4213 | – | – | – | – | –
[2], x1 = 0.45 | 1.43 | 1.4281 | 1.4259 | 1.4239 | 1.4221 | – | – | – | – | –
[2], x1 = 0.501 | 1.4305 | 1.4286 | 1.4265 | 1.4245 | 1.4227 | – | – | – | – | –
[2], x1 = 0.55 | 1.4311 | 1.4292 | 1.4272 | 1.4253 | 1.4236 | – | – | – | – | –
[2], x1 = 0.6 | 1.4316 | 1.4298 | 1.4278 | 1.426 | 1.4245 | – | – | – | – | –
[2], x1 = 0.66 | 1.4325 | 1.4307 | 1.4288 | 1.427 | 1.4255 | – | – | – | – | –
[2], x1 = 0.7 | 1.4331 | 1.4314 | 1.4295 | 1.4278 | 1.4262 | – | – | – | – | –
[2], x1 = 0.801 | 1.4347 | 1.4331 | 1.4313 | 1.4298 | 1.4283 | – | – | – | – | –
[2], x1 = 0.9 | 1.4364 | 1.4349 | 1.4332 | 1.4318 | 1.4304 | – | – | – | – | –
[2], x1 = 0.95 | 1.4373 | 1.4359 | 1.4343 | 1.4329 | 1.4315 | – | – | – | – | –
[2], x1 = 1 | 1.4384 | 1.4371 | 1.4356 | 1.4341 | 1.4328 | – | – | – | – | –
